No end group written: not given here.
Tests used:
[1] = tested on: Jmjd3 mRNA in Mof^f/f;Cre-ER brown preadipocytes; assay: qRT-PCR of Jmjd3 mRNA (control gene); assay type: cell-based, mouse
Protocol: (§1) Mof^f/f mice were crossed with Cre-ER (Jackson no. 008463) to generate Mof^f/f;Cre-ER mice[10]. Primary brown preadipocytes were isolated from interscapular brown adipose tissue of newborn (P0) Mof^f/f;Cre-ER pups and immortalized by SV40T[38]. All mouse experiments were performed in accordance with the NIH Guide for the Care and Use of Laboratory Animals and approved by the Animal Care and Use Committee of NIDDK, NIH. For rescue experiment by ectopic expression of rat MOF, immortalized Mof^f/f;Cre-ER preadipocytes stably expressing WT or K274R MOF were established using lentivirus-mediated gene transfer. Briefly, 293FT lentiviral packaging cells were transfected with pLenti-CMV plasmids expressing MYC-tagged WT or K274R rat MOF. Preadipocytes were infected with those lentivirus-containing media, followed by puromycin selection for two passages. Those expressing MYC-tagged rat MOF were confirmed by western blot.
(§2) Western blot of histone modifications using acid extracts or of nuclear proteins using nuclear extracts were done as described[45],[46]. Total RNA was extracted using TRIzol (Invitrogen) and reverse transcribed using the ProtoScript II First-Strand cDNA Synthesis Kit (NEB), following the manufacturers’ instructions. qRT-PCR was done using the following SYBR green primers: Mof (forward, 5’–[…]–3’, and reverse, 5’–[…]–3’). qPCR was done using Luna® Universal qPCR Master Mix according to the manufacturers’ instructions (NEB). To detect truncated Mof transcripts after 4-OHT treatment (2 µM), RT-PCR was performed as described.

[2] = tested on: Mof mRNA in Mof^f/f;Cre-ER brown preadipocytes; assay: qRT-PCR of Mof mRNA; assay type: cell-based, mouse
Protocol: as §1, §2

[3] = tested on: Mof^f/f;Cre-ER brown preadipocytes; assay: Growth rate of Mof KO cells; assay type: cell-based, mouse; conditions: for growth rate of Mof KO cells: 4OHT
Protocol: as §1

[4] = tested on: MLL4-PHD6 (aa 1503–1562), wild-type; assay: 1H,15N HSQC NMR titration of WT MLL4-PHD6; assay type: binding, human; conditions: for chemical shift perturbations (CSPs): 1H,15N HSQC titration, 0.15 mM 15N-labeled MLL4-PHD6, PBS pH 6.5, 298 K
Protocol: (§3) The PHD6 domain of human MLL4 (aa 1503–1562) was cloned into a pCool vector. […] The human MLL3 PHD7 domain (aa 1083–1143) was cloned into a pGEX-6p vector. All constructs were expressed in Rosetta2 (DE3) pLysS cells. Protein production was induced with 0.5 mM IPTG overnight at 16̊ °C in Luria broth (LB) or minimal media (M9) supplemented with ^15NH4Cl and 0.06 mM ZnCl2 or ^15NH4Cl, ^13C-glucose, and 0.06 mM ZnCl2. The GST-tagged PHD proteins were purified on glutathione Sepharose 4B beads (GE Healthcare) in 50 mM Tris-HCl (pH 7.5) buffer, supplemented with 250 mM NaCl and 2 mM dithiothreitol (DTT). The GST tag was cleaved with Thrombin or TEV protease overnight at 4 °̊C. Unlabeled proteins were further purified by size exclusion chromatography and concentrated in Millipore concentrators. All mutants were generated by site-directed mutagenesis using the Stratagene QuikChange mutagenesis protocol, grown, and purified as WT proteins.
NMR samples for structure determination were prepared in 20 mM Tris-HCl (pH 7.0) buffer, supplemented with 100 mM NaCl, 5 mM DTT, and 8% D2O. […] 3D ^15N-/^13C-filtered ^13C- and ^15N-edited NOESY-HSQC spectra (mixing time of 150 ms) were collected to obtain intermolecular distance restraints.
(§4) For NMR titration experiments, ^1H,^15N HSQC spectra of 0.15 mM uniformly ^15N-labeled WT or mutated MLL4-PHD6 were recorded while peptides (synthesized by SynPeptide) were added stepwise. All experiments were carried out in phosphate-buffered saline buffer (pH 6.5).

MLL4-PHD6 = assay: 1H,15N HSQC of linked H4-G7-MLL4-PHD6 construct; assay type: binding, human
Protocol: as §3, §4

[5] = biological target: T1, PHD6 finger of human MLL4 (aa 1503-1562) (human, UniProt O14686 1503-1562); assay: NMR titration; 1H,15N HSQC spectra of 2.5 mM 13C/15N-labelled MLL4-PHD6 upon titration with H4K16ac (11-21) peptide at protein:ligand 1:0, 1:2, 1:3; 20 mM Tris-HCl pH 7.0, 100 mM NaCl, 5 mM DTT, 8% D2O; 298 K; conditions: both partners purified
T1 construct: PHD6 finger of human MLL4 (KMT2D), aa 1503-1562, cloned into a pCool vector; Uniformly 15N-labelled for the titrations at 0.15 mM; also called MLL4-PHD6; MLL4-PHD6 1503-1562; source: Rosetta2 (DE3) pLysS cells, purified (glutathione Sepharose 4B; GST tag cleaved)

[6] = biological target: T2, PHD6 finger of MLL4 (MLL4-PHD6, aa 1503–1562), wild type (human, UniProt O14686 1503-1562); assay: NMR structure; solution structure; 2.5 mM 13C/15N-labeled MLL4-PHD6 and 7.5 mM H4K16ac (11–21) peptide; 20 mM Tris-HCl pH 7.0, 100 mM NaCl, 5 mM DTT, 8% D2O; 298 K; conditions: both partners purified
T2 construct: human MLL4 (KMT2D), PHD6 finger, aa 1503-1562; cloned into a pCool vector; 15N- or 13C/15N-labelled for NMR; also called MLL4-PHD6_(1503–1562); PHD6 domain of human MLL4; source: E. coli Rosetta2 (DE3) pLysS, purified (glutathione Sepharose, GST cleaved, SEC for unlabeled protein)

[7] = biological target: T1, PHD6 finger of human MLL4 (aa 1503-1562); assay: NMR titration; 1H,15N HSQC spectra of 0.15 mM uniformly 15N-labelled MLL4-PHD6 while peptide was added stepwise up to a protein:peptide molar ratio of 1:5; phosphate-buffered saline pH 6.5; 298 K; conditions: both partners purified
[8] = biological target: T2, PHD6 finger of MLL4 (MLL4-PHD6, aa …); assay: NMR titration; 1H,15N HSQC of 0.15 mM uniformly 15N-labeled PHD finger (WT or mutated), peptides added stepwise; phosphate-buffered saline pH 6.5; 298 K; conditions: both partners purified
[9] = biological target: T3, MLL4-PHD6 part of the linked H4-G7-MLL4-PHD6 construct (human, UniProt O14686 1503-1562); assay: NMR, 1H,15N HSQC spectra of a linked construct compared with free and peptide-bound PHD6; H4 (11–23) joined to MLL4-PHD6 on one chain through a hepta-glycine linker; wild type and H4 mutants; conditions: both partners purified
T3 construct: human MLL4 (KMT2D), PHD6 finger; aa 1503-1562 by the methods, 1503-1560 by the results; in the assay joined at its N-terminus through GGGGGGG to H4 residues 11-23 (m15 or its mutants) on one chain; also called H4_(11–23)-G7-PHD6 (PHD6 part); source: E. coli Rosetta2 (DE3) pLysS, purified

[10] = 4OHT-treated, technical replicate 1
[11] = 4OHT-treated, technical replicate 2
[12] = after two rounds of 4OHT treatment

T2 sequence (O14686 1503-1562): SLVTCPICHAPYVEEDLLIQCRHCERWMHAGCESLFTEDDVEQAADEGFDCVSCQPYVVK
T3 sequence (O14686 1503-1562): as above
T1 sequence (O14686 1503-1562): as above

Molecule: CC/C(=C(\c1ccc(O)cc1)c1ccc(OCCN(C)C)cc1)c1ccccc1 [4OHT, 4-hydroxytamoxifen]
- relative Jmjd3 mRNA level ([1]; 4OHT-treated Mof^f/f;Cre-ER preadipocytes, average of two technical replicates, Mock average 1.00005, STDEV in own column): 0.8326
- relative Jmjd3 mRNA level [1, 10]: 0.841
- relative Jmjd3 mRNA level [1, 11]: 0.8241
- mRNA of control gene Jmjd3 [1, 12]: unaffected
- relative Mof mRNA level ([2]; 4OHT-treated Mof^f/f;Cre-ER preadipocytes, average of two technical replicates, single experiment, Mock average 1.00268, STDEV in own column): 0.1967
- relative Mof mRNA level [2, 10]: 0.2148
- relative Mof mRNA level [2, 11]: 0.1786
- mRNA level of Mof [2, 12]: significantly decreased
- growth rate of Mof KO cells ([3]; D1, average of two replicates (D0 = 1; Mock 3.715)): 2.81
- growth rate of Mof KO cells ([3]; D1, replicate 1 (Mock 3.89)): 2.98
- growth rate of Mof KO cells ([3]; D1, replicate 2 (Mock 3.54)): 2.64
- growth rate of Mof KO cells ([3]; D2, average of two replicates (D0 = 1; Mock 6.365)): 4.725
- growth rate of Mof KO cells ([3]; D2, replicate 1 (Mock 5.82)): 4.59
- growth rate of Mof KO cells ([3]; D2, replicate 2 (Mock 6.91)): 4.86
- growth rate of Mof KO cells ([3]; D3, average of two replicates (D0 = 1; Mock 10.695)): 7.02
- growth rate of Mof KO cells ([3]; D3, replicate 1 (Mock 9.81)): 6.59
- growth rate of Mof KO cells ([3]; D3, replicate 2 (Mock 11.58)): 7.45
- growth rate of Mof KO cells ([3]; D4, average of two replicates (D0 = 1; Mock 17.965)): 12
- growth rate of Mof KO cells ([3]; D4, replicate 1 (Mock 16.98)): 12.54
- growth rate of Mof KO cells ([3]; D4, replicate 2 (Mock 18.95)): 11.46
- growth rate of Mof KO cells ([3]; D5, average of two replicates (D0 = 1; Mock 25.18)): 15.215
- growth rate of Mof KO cells ([3]; D5, replicate 1 (Mock 26.41)): 14.49
- growth rate of Mof KO cells ([3]; D5, replicate 2 (Mock 23.95)): 15.94
- growth, 4OHT average relative to Mock ([3]; D4): 66.7965
- growth, 4OHT average relative to Mock ([3]; D5): 60.4249

Molecule: CC(=O)NCCCC[C@H](N)C(=O)O [Kac]
- chemical shift perturbations (CSPs) [4]: failed to induce CSPs

Molecule: H4K16ac (11–21): H4K16ac peptide (residues 11–21) used for NMR structure; 15N/13C-labeled form synthesized by Bio-Synthesis
- saturation of MLL4-PHD6 by 3-fold excess of peptide ([4]; 7.5 mM H4K16ac (11–21) with 2.5 mM 13C/15N-labeled MLL4-PHD6, 20 mM Tris-HCl pH 7.0, 100 mM NaCl, 5 mM DTT, 8% D2O, 298 K, 1H,15N HSQC and 1H,13C HSQC): almost saturated

Molecule: H4_1–9: H4 peptide (residues 1–9 of H4) (SGRGKGGKG)
- chemical shift perturbations (CSPs) [4]: no chemical shift perturbations

Molecule: H4_8–25: peptide encompassing residues 8–25 of H4 (KGLGKGGAKRHRKVLRDN)
- chemical shift perturbations (CSPs) [4]: CSPs similar in directions to CSPs induced by the longer H4_1–23 peptide

Molecule: H4_12–23: peptide encompassing residues 12–23 of H4 (KGGAKRHRKVLR)
- chemical shift perturbations (CSPs) [4]: CSPs similar in directions to CSPs induced by the longer H4_1–23 peptide

Molecule: linked H4-MLL4-PHD6 construct: aa 11–23 of H4, hepta-glycine (GGGGGGG) linker, aa 1503–1562 of MLL4-PHD6
- spectral changes on mutation (MLL4-PHD6; H4K12 mutated to alanine in linked construct): only small spectral changes
- spectral changes on mutation (MLL4-PHD6; H4K23 mutated to alanine in linked construct): only small spectral changes
- binding of the H4 region in linked construct (MLL4-PHD6; H4 aa 11–23, hepta-glycine linker, MLL4-PHD6, no mutation): tightly bound to the protein
- complex formation on mutation (MLL4-PHD6; K16 and R17 of H4 mutated to alanine in linked construct): disrupted formation of the complex

B1: histone H4K16ac (11-21) peptide (peptide, UniProt P62805 12-22, looked up)
peptide: GKGGAK(Ac)RHRKV
notes: histone H4, residues 11-21, acetylated at K16; source: synthetic peptide
- binding result [5]: binds

B2: histone H4K16ac peptide, residues 11–21 (peptide, UniProt P62805 12-22, looked up)
peptide: GKGGAK(Ac)RHRKV
notes: histone H4, residues 11-21, acetylated at K16; a 15N/13C-labelled copy (Bio-Synthesis) was used to validate assignments; in the structure calculation only G13GAKacRH18 was used, with N-terminal acetyl and C-terminal N-Me amide caps; also called H4K16ac (11–21) peptide; source: synthetic peptide
- binding result [6]: binds

B3: histone H4 (8-25) peptide (peptide, UniProt P62805 9-26, looked up)
peptide: KGLGKGGAKRHRKVLRDN
notes: histone H4, residues 8-25, unmodified; source: synthetic peptide (SynPeptide)
- binding result [7]: binds

B4: histone H4 peptide, residues 8–25 (peptide, UniProt P62805 9-26, looked up)
peptide: KGLGKGGAKRHRKVLRDN
notes: histone H4, residues 8-25; source: synthetic peptide (SynPeptide)
- binding result [8]: binds

B5: histone H4 peptide, residues 12–23 (peptide, UniProt P62805 13-24, looked up)
peptide: KGGAKRHRKVLR
notes: histone H4, residues 12-23; also called H4_(12–23); source: synthetic peptide (SynPeptide)
- binding result [8]: binds

B6: H4 (residues 11–23) part of the linked H4-G7-MLL4-PHD6 construct, wild type (domain or fragment, UniProt P62805 12-24, looked up)
chain: GKGGAKRHRKVLR
notes: histone H4, residues 11-23; in the assay this stretch stood on ONE chain with m16: H4 11-23, hepta-glycine linker GGGGGGG, MLL4-PHD6; cloned into pDEST-15; also called H4_(11–23)-G7-PHD6 (H4 part); linked H4-MLL4-PHD6 construct; source: E. coli Rosetta2 (DE3) pLysS, purified
- binding result [9]: binds

B7: H4 (residues 11–23) K12A part of the linked H4-G7-MLL4-PHD6 construct (domain or fragment, UniProt P62805 12-24, looked up)
chain: GAGGAKRHRKVLR
notes: histone H4, residues 11-23, K12A; on one chain with m16 through a GGGGGGG linker; also called H4K12 to alanine in the linked construct; source: E. coli Rosetta2 (DE3) pLysS, purified as WT protein
- binding result [9]: binds
